# pKi: −log10 of the molar value.
# Target: T1, human H3R (Homo sapiens, UniProt Q9Y5N1)
# T1 construct: expressed in transfected cells; host or cells: CHO cells
# Assay: Binding assay with 3H-(R)α-methylhistamine (competition binding, membranes of the human H3R-CHO cell line)
# Conditions: competition with 3H(R)α-methylhistamine (1 nM), Ki calculated from IC50 by Cheng-Prusoff
# Protocol: Binding Assay With ^3H—(R)α-methylhistamine
# Saturation binding experiments were performed using HR3-CHO membranes prepared as described in Takahashi, K, Tokita, S., Kotani, H. (2003) J. Pharmacol. Exp. Therapeutics 307, 213-218.
# An appropriate amount of membrane (60 to 80 μg protein/well) was incubated with increasing concentrations of ^3H(R)α-Methylhistamine di-hydrochloride (0.10 to 10 nM). Non specific binding was determined using a 200 fold excess of cold (R)α-Methylhistamine dihydrobromide (500 nM final concentration). The incubation was carried out at room temperature (in deep-well plates shaking for three hours). The final volume in each well was 250 μl. The incubation was followed by rapid filtration on GF/B filters (pre-soaked with 100 μl of 0.5% PEI in Tris 50 mM shaking at 200 rpm for two hours). The filtration was made using a cell-harvester and the filter plates were then washed five times with ice cold washing buffer containing 0.5 M NaCl. After harvesting, the plates were dried at 55° C. for 60 min, then we added scintillation fluid (Microscint 40, 40 microl in each well) and the amount of radioactivity on the filter was determined in Packard top-counter after shaking the plates for two hours at 200 rpm at room temperature.
# Binding Buffer: 50 mM Tris-HCl pH 7.4 and 5 mM MgCl2×6H2O pH 7.4. Washing Buffer: 50 mM Tris-HCl pH 7.4 and 5 mM MgCl2×6H2O and 0.5 M NaCl pH 7.4.
# Indirect measurement of affinity of H3R inverse agonists: twelve increasing concentrations (ranging from 10 μM to 0.3 nM) of the selected compounds were always tested in competition binding experiments using membrane of the human H3R—CHO cell line. An appropriate amount of protein, e.g. approximately 500 cpm binding of RAMH at Kd, were incubated for 1 hour at room temperature in 250 μl final volume in 96-well plates in presence of ^3H(R)α-methylhistamine (1 nM final concentration=Kd). Non-specific binding was determined using a 200 fold excess of cold (R)α-methylhistamine dihydrobromide.
# All compounds were tested at a single concentration in duplicate. […] The concentration at which 50% inhibition of the radioligand ^3H(R)α-methylhistamine is obtained (the IC50) is determined from the linear regression of a plot of the logarithm of the concentration versus percent inhibition measured for the different concentrations. Ki's were calculated from IC50 based on Cheng-Prusoff equation (Cheng, Y, Prusoff, W H (1973) Biochem Pharmacol 22, 3099-3108): Ki=IC50/[1+D/Kd] wherein D is the concentration of the radioligand and Kd is the binding constant for the radioligand binding to the receptor under the conditions used in the competition experiment.
# T1 sequence (Q9Y5N1 whole entry): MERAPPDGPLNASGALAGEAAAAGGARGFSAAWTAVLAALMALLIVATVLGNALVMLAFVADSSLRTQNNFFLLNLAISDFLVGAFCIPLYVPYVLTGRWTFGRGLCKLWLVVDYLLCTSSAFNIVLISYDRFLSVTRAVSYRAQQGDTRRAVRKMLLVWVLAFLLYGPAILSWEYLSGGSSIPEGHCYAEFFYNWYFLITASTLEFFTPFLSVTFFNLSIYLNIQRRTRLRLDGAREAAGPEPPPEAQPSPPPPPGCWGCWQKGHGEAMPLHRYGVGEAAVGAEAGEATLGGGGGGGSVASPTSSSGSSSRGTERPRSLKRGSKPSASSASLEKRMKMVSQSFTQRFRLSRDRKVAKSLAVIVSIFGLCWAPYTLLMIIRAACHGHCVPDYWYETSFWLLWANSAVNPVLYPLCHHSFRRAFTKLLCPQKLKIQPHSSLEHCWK
row,pKi,Compound
1,7.07,"CC(C)N1CCN(C(=O)c2ccc3c(ccn3CC3CCCC3)c2)CC1 [Example 1, (1-Cyclopentylmethyl-1H-indol-5-yl)-(4-isopropyl-piperazin-1-yl)-methanone]"
2,7.28,"O=C(c1ccc2c(ccn2S(=O)(=O)c2cccs2)c1)N1CCN(C2CCCC2)CC1 [Example 20, (4-cyclopentyl-piperazin-1-yl)-[1-(thiophene-2-sulfonyl)-1H-indol-5-yl]-methanone]"
3,7.03,"CC(C(=O)c1ccccc1)n1ccc2c(C(=O)N3CCN(C4CCCC4)CC3)cccc21 (stereo not shown) [Example 34, 2-[4-(4-Cyclopentyl-piperazine-1-carbonyl)-indol-1-yl]-1-phenyl-propan-1-one]"
4,7.76,"O=C(c1cccc2c1ccn2Cc1ccc(F)cc1Cl)N1CCN(C2CCCC2)CC1 [Example 41, [1-(2-chloro-4-fluoro-benzyl)-1H-indol-4-yl]-(4-cyclopentyl-piperazin-1-yl)-methanone]"

# Source: patent US7557108B2, “(Indol-4-yl) or (indol-5-yl)-piperazinylmethanones” (Hoffmann-La Roche Inc., priority 2007, dated 2009)
